Test results published in ChEMBL document CHEMBL1123054, “Synthesis and dopamine autoreceptor activity of a 5-(methylmercapto)methyl-substituted derivative of (+/-)-3-PPP (3-(3-hydroxyphenyl)-1-n-propylpiperidine)” (J Med Chem, 1985).

How the values were obtained:
Mus musculus [1] = assay: Dopa accumulation induced by GBL was measured in mouse after subcutaneous administration of 32 umol/kg of compound; type: functional
Rattus norvegicus [2] = species: Rattus norvegicus; assay: In vitro inhibitory activity was determined against dopamine synthesis in rat striatal synaptosomes; conditions: Brain
Mus musculus [3] = assay: Dose required to produce convulsions in mouse was determined after subcutaneously administration; type: functional
Rattus norvegicus [4] = species: Rattus norvegicus; assay: In vitro inhibitory activity was determined against dopamine synthesis in rat striatal synaptosomes; conditions: Brain; remark: listed apart in the source

Structure (SMILES)	Accumulation (Mus musculus [1]) [%]	IC50 (Rattus norvegicus [2]) [µM]	Dose (Mus musculus [3]) [µM/kg]	IC50 (Rattus norvegicus [4]) [µM]
CCCN1CCCC(c2cccc(O)c2)C1 (stereo not given)	60	55	–	–
CCCN1C[C@H](CSC)C[C@H](c2cccc(O)c2)C1	89	–	100	45
